Experimental data from ChEMBL document CHEMBL5727849, “Piperidinone formyl peptide 2 receptor and formyl peptide 1 receptor agonists” (2020).

Legend:
[1] = biological target: T1, N-formyl peptide receptor 2 (Homo sapiens, UniProt P25090); assay: (§1) cAMP Assay: FPR2 and FPR1 Cyclic Adenosine Monophosphate (cAMP) Assays. A mixture of forskolin (5 μM final for FPR2 or 10 μM final for FPR1) and IBMX (200 μM final) were added to 384-well Proxiplates (Perkin-Elmer) pre-dotted with test compounds in DMSO (1% final) at final concentrations in the range of 0.020 nM to 100 μM. Chinese Hamster Ovary cells (CHO) overexpressing human FPR1 or human FPR2 receptors were cultured in F-12 (Ham's) medium supplemented with 10% qualified FBS, 250 μg/ml zeocin and 300 μg/ml hygromycin (Life Technologies). Reactions were initiated by adding 2,000 human FPR2 cells per well or 4,000 human FPR1 cells per well in Dulbecco's PBS (with calcium and magnesium) (Life Technologies) supplemented with 0.1% BSA (Perkin-Elmer). The reaction mixtures were incubated for 30 min at room temperature. The level of intracellular cAMP was determined using the HTRF HiRange cAMP assay reagent kit (Cisbio) according to manufacturer's instruction. Solutions of cryptate conjugated anti-cAMP and d2 flurorophore-labelled cAMP were made in a supplied lysis buffer separately. Upon completion of the reaction, the cells were lysed with equal volume of the d2-cAMP solution and anti-cAMP solution. After a 1-h room temperature incubation, time-resolved fluorescence intensity was measured using the Envision (Perkin-Elmer) at 400 nm excitation and dual emission at 590 nm and 665 nm.; assay type: cell-based
T1 sequence (P25090 whole entry): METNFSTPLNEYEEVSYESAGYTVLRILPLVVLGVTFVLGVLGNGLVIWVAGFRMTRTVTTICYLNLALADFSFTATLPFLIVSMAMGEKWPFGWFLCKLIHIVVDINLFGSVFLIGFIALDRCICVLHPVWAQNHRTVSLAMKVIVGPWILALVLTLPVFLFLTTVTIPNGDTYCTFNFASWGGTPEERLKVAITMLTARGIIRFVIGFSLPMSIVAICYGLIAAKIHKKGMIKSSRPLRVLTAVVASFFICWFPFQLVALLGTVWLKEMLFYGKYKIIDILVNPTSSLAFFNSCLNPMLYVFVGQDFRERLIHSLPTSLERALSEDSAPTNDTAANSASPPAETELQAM

[2] = biological target: T2, fMet-Leu-Phe receptor (Homo sapiens, UniProt P21462); assay: as §1; assay type: cell-based
T2 sequence (P21462 whole entry): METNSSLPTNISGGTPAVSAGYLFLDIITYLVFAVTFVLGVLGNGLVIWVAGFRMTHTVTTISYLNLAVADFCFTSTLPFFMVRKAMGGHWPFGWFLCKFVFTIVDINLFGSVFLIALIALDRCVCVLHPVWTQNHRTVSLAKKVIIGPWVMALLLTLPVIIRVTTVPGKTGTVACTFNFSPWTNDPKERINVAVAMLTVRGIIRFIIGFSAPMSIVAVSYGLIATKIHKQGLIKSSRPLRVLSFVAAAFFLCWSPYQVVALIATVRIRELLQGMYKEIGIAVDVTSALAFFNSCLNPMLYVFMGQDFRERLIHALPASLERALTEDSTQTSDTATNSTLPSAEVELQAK

EC50 [1] [nM] | EC50 [2] [nM] | SMILES
11 | 14 | O=C(Nc1ccc(Cl)cc1)N[C@@H]1CCCN(c2ccc(-c3c(Cl)cccc3Cl)cc2)C1=O
840 | 1700 | NC(=O)c1ccccc1-c1ccc(N2CCC[C@@H](NC(=O)Nc3ccc(F)c(F)c3)C2=O)cc1
